Data published in patent EP0511845B1, “Pesticidal 1-aryl-5-(substituted alkylideneimino)-pyrazoles” (AVENTIS CROPSCIENCE S.A., priority 1991, dated 1992).

Assays:
Format in all cases: in vivo
Spodoptera eridania [1] = test: Southern armyworm on oats - seed treatment evaluation; details: 1.0 wt. % on oat seeds
Description: Cotton aphid and southern armyworm (on cotton and oats) - seed treatment evaluation: Technical material was applied to the seed of oats and cotton by placing the compound and the seed in an appropriate sized jar and rolling the jar on a ball mill. Assay of the material applied to the seed was by weight. Seed was then planted. When germinated and emerged, the plants were infested at the appropriate intervals with host insects. Mortality was assessed on those insects.

Spodoptera eridania [2] = test: Southern armyworm on sorghum - systemic evaluation (soil drench); details: systemic via root uptake, 20 ppm soil concentration dose (and subsequent dilutions), six days
Description: Cotton aphid and southern armyworm (on cotton) and greenbug and southern armyworm (on sorghum) - systemic evaluation: A stock solution or suspension was prepared to deliver 5 ml of a 20 ppm soil concentration dose (and subsequent dilutions) as a drench to 6 cm pots containing cotton and sorghum plants. The cotton plants were previously infested with cotton aphids about two days before treatment and greenbug one day before treatment. After holding the plants about three days, the plants were rated for aphid activity. Again at six days, the plants were rated for aphid activity and the cotton aphids and greenbugs were counted and mortality was assessed. Portions of the cotton and sorghum foliage were excised, placed in separate plastic containers, and infested with second instar larvae of southern armyworms. The potted plants were dipped in sulfotepp to kill the remaining aphids and returned to the greenhouse for regrowth. Thirteen days after treatment the remaining foliage was excised and fed to southern armyworm. Mortality was assessed six days after infestation.

Meloidogyne incognita = test: Southern root-knot nematode test (gall rating on tomato); details: effective dose to provide a 3 gall rating (light galling)
Description: For southern root-knot nematod and systemic tests for southern armyworm, cotton aphid, tobacco budworm and greenbug, a stock solution or suspension was prepared by adding 15 mg of the test compound to 250 mg of dimethylformamide, 1250 mg of acetone and 3 mg of the emulsifier blend referenced above. Water was then added to provide a test compound concentration of 150 ppm. When necessary, sonication was provided to insure complete dispersion.
Southern root-knot nematode: Infected roots of tomato plants, containing egg masses of southern root-knot nematode, were removed from a stock culture and cleaned of soil by shaking and washing with tap water. The nematode eggs were separated from the root tissue and rinsed with water. Samples of the egg suspension were placed on a fine screen over a receiving bowl, in which the water level was adjusted to be in contact with the screen. From the bowl, juveniles were collected on a fine screen. […] At the termination of the test, roots of the tomato seedling were removed from the cone and evaluated for galling on a rating scale relative to the untreated control as follows: • 1- severe galling, equal t untreated control • 3- light galling • 4- very light galling • 5- no galling, ie, complete control

Spodoptera eridania [3] = test: Southern armyworm on tomato - systemic evaluation; details: systemic via root uptake; 6.6 ppm soil concentration; foliage excised 21 days after treatment, larvae examined after about 5 days
Description: For southern root-knot nematod and systemic tests for southern armyworm, cotton aphid, tobacco budworm and greenbug, a stock solution or suspension was prepared by adding 15 mg of the test compound to 250 mg of dimethylformamide, 1250 mg of acetone and 3 mg of the emulsifier blend referenced above. Water was then added to provide a test compound concentration of 150 ppm. When necessary, sonication was provided to insure complete dispersion. Southern armyworm on tomato - systemic evaluation: This test was conducted in conjunction with the southern root-knot nematode evaluation (discussed below). The tomato plants, grown in the soil (at an initial compound test screening rate of 6.6 ppm soil concentration or about 150 ppm solution concentration) for nematode evaluation, were then utilized for evaluation of a compound's uptake via roots and subsequent systemic transport to the tomato foliage. At the termination of the nematode test, 21 days after treatment, the tomato foliage was excised, placed into a plastic container, and infested with second instar larvae of southern armyworm. After about 5 days, the larvae were examined for percent mortality.

Schizaphis graminum = test: Greenbug on sorghum - systemic evaluation (soil drench); details: systemic via root uptake, soil drench at soil concentrations of the protocols (10.0 or 20 ppm)
Description: (§1) For southern root-knot nematod and systemic tests for southern armyworm, cotton aphid, tobacco budworm and greenbug, a stock solution or suspension was prepared by adding 15 mg of the test compound to 250 mg of dimethylformamide, 1250 mg of acetone and 3 mg of the emulsifier blend referenced above. Water was then added to provide a test compound concentration of 150 ppm. When necessary, sonication was provided to insure complete dispersion. Cotton aphid and tobacco budworm (on cotton) and greenbug and tobacco budworm (on sorghum) - systemic evaluation: A 7.0 ml aliquot of the 150 ppm nematode test solution was applied to deliver the equivalent of 10.0 ppm soil concentration dose as a drench to 6 cm pots containing cotton and sorghum plants. The cotton plants were previously infested with cotton aphids about two days before treatment and greenbug one day before treatment. After holding the plants about three days, the plants were rated for aphid activity. Again at six days, the plants were rated for aphid activity and the cotton aphids and greenbugs were counted and mortality was assessed. Portions of the cotton and sorghum foliage were excised, placed in separate plastic containers, and infested with second instar larvae of tobacco budworm. The potted plants were dipped in sulfotepp to kill the remaining aphids and returned to the greenhouse for regrowth. Thirteen days after treatment, the remaining foliage was excised and fed to tobacco budworms. Mortality was assessed six days after infestation. Cotton aphid and southern armyworm (on cotton) and greenbug and southern armyworm (on sorghum) - systemic evaluation: A stock solution or suspension was prepared to deliver 5 ml of a 20 ppm soil concentration dose (and subsequent dilutions) as a drench to 6 cm pots containing cotton and sorghum plants. The cotton plants were previously infested with cotton aphids about two days before treatment and greenbug one day before treatment. After holding the plants about three days, the plants were rated for aphid activity. Again at six days, the plants were rated for aphid activity and the cotton aphids and greenbugs were counted and mortality was assessed. Portions of the cotton and sorghum foliage were excised, placed in separate plastic containers, and infested with second instar larvae of southern armyworms. The potted plants were dipped in sulfotepp to kill the remaining aphids and returned to the greenhouse for regrowth. Thirteen days after treatment the remaining foliage was excised and fed to southern armyworm. Mortality was assessed six days after infestation.

Heliothis virescens [4] = test: Tobacco budworm on sorghum - systemic evaluation (soil drench); details: systemic via root uptake, 10.0 ppm soil concentration
Description: For southern root-knot nematod and systemic tests for southern armyworm, cotton aphid, tobacco budworm and greenbug, a stock solution or suspension was prepared by adding 15 mg of the test compound to 250 mg of dimethylformamide, 1250 mg of acetone and 3 mg of the emulsifier blend referenced above. Water was then added to provide a test compound concentration of 150 ppm. When necessary, sonication was provided to insure complete dispersion. Cotton aphid and tobacco budworm (on cotton) and greenbug and tobacco budworm (on sorghum) - systemic evaluation: A 7.0 ml aliquot of the 150 ppm nematode test solution was applied to deliver the equivalent of 10.0 ppm soil concentration dose as a drench to 6 cm pots containing cotton and sorghum plants. The cotton plants were previously infested with cotton aphids about two days before treatment and greenbug one day before treatment. After holding the plants about three days, the plants were rated for aphid activity. Again at six days, the plants were rated for aphid activity and the cotton aphids and greenbugs were counted and mortality was assessed. Portions of the cotton and sorghum foliage were excised, placed in separate plastic containers, and infested with second instar larvae of tobacco budworm. The potted plants were dipped in sulfotepp to kill the remaining aphids and returned to the greenhouse for regrowth. Thirteen days after treatment, the remaining foliage was excised and fed to tobacco budworms. Mortality was assessed six days after infestation.

Aphis gossypii = test: Cotton aphid on cotton - systemic evaluation (soil drench); details: systemic via root uptake, soil drench at soil concentrations of the protocols (10.0 or 20 ppm)
Description: as §1

Tetranychus urticae = test: Twospotted spider mite test (foliar, 100 ppm); details: foliar bait tests
Description: For mite, aphid, southern armyworm, Mexican bean beetle, and tobacco budworm tests, a solution or suspension was prepared by adding 10 mg of the test compound to a solution of 160 mg of dimethylformamide, 838 mg of acetone, 2 mg of a 3:1 ratio of Triton X-172 : Triton X-152 (respectively, mainly anionic and nonionic low foam emulsifiers which are each anhydro us blends of alkylaryl polyether alcohols with organic sulfonates), and 98.99 g of water. The result was a concentration of 100 ppm of the test compound.
Twospotted spider mite: Leaves infested with adult and nymphal stages of the two-spotted spider mite, obtained from a stock culture were placed on the primary leaves of two bean plants growing in a 6 cm. peat pot. A sufficient number of mites (150-200) for testing were transferred to the fresh plants within a period of twenty-four hours. The potted plants (one pot per compound) were placed on a revolving turntable and sprayed, sufficient to wet the plants to runoff, with 100 ml of the 100 ppm test compound formulation by use of a DeVilbiss spray gun set at 40 psig. air pressure. As an untreated control, 100 ml of the water-acetone-DMF-emulsifier solution, containing no test compound, were also sprayed on infested plants. A treated control with a commercial technical compound, either dicofol or hexythiazox, formulated in the same manner, was tested as a standard. […]

Heliothis virescens [5] = test: Tobacco budworm - contact evaluation (topical application); details: topical or contact tests; application dose of 63 µg/g body weight
Description: For tobacco budworm contact tests, a stock solution was prepared by dissolving the compound in acetone and then further diluted to provide the required serial dilution concentrations.
Tobacco budworm - contact evaluation: The following topical application method provides an assessment of contact toxicity of a compound to tobacco budworm larvae The test compound solution at sequential two-fold dilution concentrations from 10 down to 0.16 µg/µl was applied by a microinjector in repli cated 1 µl portions to the dorsum of approximately 20 mg tobacco budworm larvae. This is equivalent to applied doses of 500 down to 8 µg/g body weight. An acetone treated control, without any test compounds, as also applied. A treated control with a commercial technical compound, cypermethrin or thiodicarb, also in acetone was used as a standard. The treated larvae were placed, individually, in separate plastic petri dishes containing an untreated cotton leaf and a moist dental wick. The treated larvae were maintained at about 27°C and 50% relative humidity. The percent mortality was rated 1 and 4 days after treatment.

COc1cc(C=Nc2c(SC(F)(F)F)c(C#N)nn2-c2c(Cl)cc(C(F)(F)F)cc2Cl)ccc1O [CMPD NO. 2, 1-(2,6-dichloro-4-trifluoromethylphenyl)-3-cyano-4-trifluoromethylsulfenyl-5-[(4-hydroxy-3-methoxyphenyl)methylideneimino]pyrazole]
control of southern armyworm after six days (Spodoptera eridania [1]): 100%
control of southern armyworm after six days on sorghum (Spodoptera eridania [2]): 30-100%

N#Cc1nn(-c2c(Cl)cc(C(F)(F)F)cc2Cl)c(N=Cc2cccs2)c1SC(F)(F)F [compound 7]
ED3 value on SRKN larvae (Meloidogyne incognita): about 21 kg/ha

COc1cc(C=Nc2c([S+]([O-])C(F)(F)F)c(C#N)nn2-c2c(Cl)cc(C(F)(F)F)cc2Cl)ccc1O (stereo not drawn) [compound 10, 1-(2,6-dichloro-4-trifluoromethylphenyl)-3-cyano-4-trifluoromethylsulfinyl-5-[(4-hydroxy-3-methoxyphenyl)methylideneimino]pyrazole]
ED3 value on SRKN larvae (Meloidogyne incognita): about 21 kg/ha
control of southern armyworm on tomato (Spodoptera eridania [3]): 50-100%
control of southern armyworm after six days on sorghum (Spodoptera eridania [2]): 30-100%

N#Cc1nn(-c2c(Cl)cc(C(F)(F)F)cc2Cl)c(N=Cc2cc[n+]([O-])cc2)c1SC(F)(F)F [compound 18, 1-(2,6-dichloro-4-trifluoromethylphenyl)-3-cyano-4-trifluoromethylsulfenyl-5-[(4-pyridyl-N-oxide)methylideneimino]pyrazole]
control of greenbug after six days on sorghum (Schizaphis graminum): 30-100%
control of tobacco budworm after six days on sorghum (Heliothis virescens [4]): 100%
control of cotton aphid after six days on cotton (Aphis gossypii): 30-100%

Cc1cc(C=Nc2c(SC(F)(F)F)c(C#N)nn2-c2c(Cl)cc(C(F)(F)F)cc2Cl)ccc1O [compound 19]
control of greenbug after six days on sorghum (Schizaphis graminum): 30-100%
control of tobacco budworm after six days on sorghum (Heliothis virescens [4]): 100%
control of cotton aphid after six days on cotton (Aphis gossypii): 30-100%

COc1cc(C=Nc2c(SC(F)(F)F)c(C#N)nn2-c2c(Cl)cc(C(F)(F)F)cc2Cl)cc(O)c1O [compound 40]
control of mites (Tetranychus urticae): 30-70%
control of tobacco budworm (TBW) (Heliothis virescens [5]): 50-100%

CCOc1cc(C=Nc2c([S+]([O-])C(F)(F)F)c(C#N)nn2-c2c(Cl)cc(C(F)(F)F)cc2Cl)ccc1O (stereo not drawn) [compound 47]
control of mites (Tetranychus urticae): 30-70%
